Numbers after ± are expanded uncertainties.
Legend:
[1] = 298.15 K, 101.33 kPa, Liquid; for viscosity: Capillary tube (Ostwald / Ubbelohde) method; for speed of sound: Sing-around technique in a fixed-path interferometer
[2] = xn = mol fraction of the nth substance listed; details: 298.15 K, 101 kPa, Liquid; for viscosity: Capillary tube (Ostwald / Ubbelohde) method; for speed of sound: Sing-around technique in a fixed-path interferometer

CCCCCCCO [heptan-1-ol]
[1]
Details | mass density [kg/m3] | speed of sound [m/s] | viscosity [mPa·s]
– | 818.851 ± 0.45 | 1327.4 ± 0.84 | 5.886 ± 0.034

CO [methanol]
[1]
Details | mass density [kg/m3] | speed of sound [m/s] | viscosity [mPa·s]
– | 786.548 ± 0.49 | 1102.6 ± 0.77 | 0.5444 ± 0.011

COCC(C)OCC(C)OC (centres undefined) [2-methoxy-1-(2-methoxy-1-methylethoxy)propane] + CCCO
[2]
Details | mass density [kg/m3] | speed of sound [m/s] | viscosity [mPa·s]
x1 = 0.0008 | – | – | 1.955 ± 0.015
x1 = 0.0061 | – | – | 1.928 ± 0.015
x1 = 0.0186 | – | – | 1.866 ± 0.015
x1 = 0.0409 | – | – | 1.775 ± 0.015
x1 = 0.0653 | 815.198 ± 0.45 | 1210.9 ± 0.81 | –
x1 = 0.0666 | – | – | 1.678 ± 0.014
x1 = 0.0903 | – | – | 1.599 ± 0.014
x1 = 0.1089 | 824.018 ± 0.43 | 1212.8 ± 0.81 | –
x1 = 0.1309 | – | – | 1.494 ± 0.013
x1 = 0.1451 | 830.582 ± 0.42 | 1214 ± 0.81 | –
x1 = 0.1846 | – | – | 1.382 ± 0.013
x1 = 0.2124 | 841.11 ± 0.41 | 1215.2 ± 0.81 | –
x1 = 0.267 | – | – | 1.264 ± 0.013
x1 = 0.2694 | 848.766 ± 0.4 | 1216 ± 0.81 | –
x1 = 0.3041 | 852.935 ± 0.39 | 1215.8 ± 0.81 | –
x1 = 0.3136 | – | – | 1.211 ± 0.012
x1 = 0.3359 | 856.509 ± 0.39 | 1215.6 ± 0.81 | –
x1 = 0.345 | – | – | 1.184 ± 0.012
x1 = 0.3718 | – | – | 1.164 ± 0.012
x1 = 0.3913 | 862.204 ± 0.38 | 1215.6 ± 0.81 | –
x1 = 0.4516 | – | – | 1.112 ± 0.012
x1 = 0.4561 | 868.154 ± 0.37 | 1215.4 ± 0.81 | –
x1 = 0.502 | 872.013 ± 0.36 | 1215.3 ± 0.81 | –
x1 = 0.5198 | – | – | 1.081 ± 0.012
x1 = 0.5464 | 875.439 ± 0.36 | 1214.6 ± 0.81 | –
x1 = 0.5625 | – | – | 1.066 ± 0.012
x1 = 0.6111 | – | – | 1.05 ± 0.012
x1 = 0.6139 | 880.179 ± 0.35 | 1213.9 ± 0.81 | –
x1 = 0.6459 | – | – | 1.043 ± 0.012
x1 = 0.6513 | 882.571 ± 0.35 | 1213.2 ± 0.81 | –
x1 = 0.708 | 885.911 ± 0.34 | 1212.5 ± 0.81 | –
x1 = 0.7346 | – | – | 1.021 ± 0.012
x1 = 0.7572 | 888.492 ± 0.34 | 1211.4 ± 0.81 | –
x1 = 0.7703 | – | – | 1.012 ± 0.012
x1 = 0.8098 | 891.002 ± 0.33 | 1210.3 ± 0.81 | –
x1 = 0.8317 | – | – | 1.005 ± 0.012
x1 = 0.8457 | 892.536 ± 0.33 | 1209.5 ± 0.81 | –
x1 = 0.8591 | – | – | 1.002 ± 0.012
x1 = 0.9067 | 894.986 ± 0.33 | 1207.9 ± 0.8 | –
x1 = 0.9511 | – | – | 0.9968 ± 0.012
x1 = 0.9576 | 896.939 ± 0.33 | 1206.4 ± 0.8 | –
x1 = 0.9746 | 897.584 ± 0.32 | 1206.1 ± 0.8 | –
x1 = 0.9753 | – | – | 0.993 ± 0.012
x1 = 0.9915 | – | – | 0.9927 ± 0.012

CCCO [propan-1-ol]
[1]
Details | mass density [kg/m3] | speed of sound [m/s] | viscosity [mPa·s]
– | 799.666 ± 0.47 | 1206.5 ± 0.8 | 1.959 ± 0.015

COCC(C)OCC(C)OC (centres undefined) [2-methoxy-1-(2-methoxy-1-methylethoxy)propane]
[1]
Details | mass density [kg/m3] | speed of sound [m/s] | viscosity [mPa·s]
– | 898.566 ± 0.33 | 1205 ± 0.8 | 0.9926 ± 0.012

CCCCCO [pentan-1-ol]
[1]
Details | mass density [kg/m3] | speed of sound [m/s] | viscosity [mPa·s]
– | 811.001 ± 0.46 | 1276 ± 0.83 | 3.495 ± 0.022
